In US5691373A, “Nonpeptide endothelin antagonists I” (Warner-Lambert Company, priority 1995, dated 1997):

Legend:
ETA = target: T1, ETA (Oryctolagus cuniculus, UniProt A5A8K3); conditions: ERBA-A IC50, [125I]-ET-1, rabbit renal artery vascular smooth muscle cells
T1 sequence (A5A8K3 21-427): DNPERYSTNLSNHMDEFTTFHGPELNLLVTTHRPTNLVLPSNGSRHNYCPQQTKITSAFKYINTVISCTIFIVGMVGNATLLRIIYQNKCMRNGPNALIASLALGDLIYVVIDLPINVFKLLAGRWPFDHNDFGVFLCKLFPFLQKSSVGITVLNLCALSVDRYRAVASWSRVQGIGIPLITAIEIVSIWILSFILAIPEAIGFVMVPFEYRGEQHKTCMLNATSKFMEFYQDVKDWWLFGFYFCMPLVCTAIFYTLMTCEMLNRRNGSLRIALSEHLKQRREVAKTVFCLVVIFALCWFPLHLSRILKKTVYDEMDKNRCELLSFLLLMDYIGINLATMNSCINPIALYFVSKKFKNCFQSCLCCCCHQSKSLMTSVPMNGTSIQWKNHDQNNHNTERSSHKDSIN
Experimental: The cells used were rabbit renal artery vascular smooth muscle cells grown in a 48-well dish (1 cm^2) (confluent cells).
The growth media was Dulbecco's Modified Eagles/Ham's F12 which contained 10% fetal bovine serum and antibiotics (penicillin/streptomycin/fungizone).
Second, remove the assay buffers, place the dish on ice, and add 150 μL of cold assay buffer described above to each well. […] Next, place dish in a 37° C., water bath for about 2 hours and gently agitate the dish every 15 minutes. Discard the radioactive incubation mixture in the sink and wash wells 3 times with 1 mL of cold phosphate buffered saline.

human ETB receptor = target: T2, human ETB receptor (Homo sapiens, UniProt P24530); experiment: ERBA-B: [125I]-ET-1 binding, recombinant human ETB receptor expressed in CHO-K1 cells; conditions: human cloned ETB receptor, read-out: ERBA-B IC50, human cloned receptor data
T2 construct: expressed in transfected cells; host or cells: CHO-K1 cells, pRc-CMW (so in the source) expression vector, electroporation; membranes used
T2 sequence (P24530 27-442): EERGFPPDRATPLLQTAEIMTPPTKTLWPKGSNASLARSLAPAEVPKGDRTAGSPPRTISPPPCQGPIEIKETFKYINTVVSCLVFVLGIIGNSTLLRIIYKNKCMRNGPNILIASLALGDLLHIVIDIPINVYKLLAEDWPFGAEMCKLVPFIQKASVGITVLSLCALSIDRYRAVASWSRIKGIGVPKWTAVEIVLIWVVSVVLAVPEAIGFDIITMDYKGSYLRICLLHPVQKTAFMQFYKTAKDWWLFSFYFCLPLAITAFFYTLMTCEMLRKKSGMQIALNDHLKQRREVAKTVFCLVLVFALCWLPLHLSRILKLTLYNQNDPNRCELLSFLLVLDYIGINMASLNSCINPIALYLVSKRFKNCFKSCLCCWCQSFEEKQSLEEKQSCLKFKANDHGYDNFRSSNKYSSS
Experimental: Count filters for radioactivity in gamma counter.
The above process has also been modified by using human recombinant CHO-K1 cells.
The tissue used for human ETB was recombinant human ETB receptor expressed in CHO-K1 cells (chinese hamster ovary cells). The gene for human ETB receptor was cloned and inserted into the pRc-CMW expression vector, then transfected into CHO-K1 cells by electroporation. For binding assays, membranes (0.7 mg protein) of CHO-K1 cells expressing recombinant human ETB receptor were used.
^d Human cloned receptor data

Row | SMILES | IC50 (ETA) [nM] | IC50 (human ETB receptor) [nM]
1 | CCCCCCCCOc1ccc(CC2=C(c3ccc4c(c3)OCO4)C(=O)OC2(O)c2ccc(OC)c(C)c2)cc1OC (stereo not shown) [Example 394, 3-Benzo[1,3]dioxol-5-yl-5-hydroxy-5-(4-methoxy-3-methyl-phenyl)-4-(3-methoxy-4-octyloxy-benzyl)-5H-furan-2-one] | 68 | 420
2 | COc1ccc(C2(O)OC(=O)C(c3ccc4c(c3)OCO4)=C2CC2CCCC(C(=O)O)C2)cc1 (stereo not shown) [Example 403, 3-[4-Benzo[1,3]dioxol-5-yl-2-hydroxy-2-(4-methoxyphenyl)-5-oxo-2,5-dihydro-furan-3-ylmethyl]-cyclohexanecarboxylic acid] | 250 | 3000
3 | CSc1ccc(C2(O)OC(=O)C(c3ccc4c(c3)OCO4)=C2Cc2ccccc2)cc1 (stereo not shown) [Example 271, 3-Benzo[1,3]dioxol-5-yl-4-benzyl-5-hydroxy-5-(4-methylsulfanylphenyl)-5H-fu ran-2-one] | 390 | 
4 | COc1ccc(C2(O)OC(=O)C(c3cc(OC)cc(OC)c3)=C2Cc2cccc(F)c2)cc1 (stereo not shown) [Example 129, 3-(3,5-Dimethoxphenyl)-4-(3-fluorobenzyl)-5-hydroxy-5-(4-methoxyphenyl)-5H-furan-2-one] | 72 | 2300
5 | COc1ccc(C2(O)OC(=O)C(c3cc(OC)cc(OC)c3)=C2Cc2ccc(OC)c(C)c2)cc1 (stereo not shown) [Example 272] | 6.4 | 760
6 | COc1ccc(C2(O)OC(=O)C(c3cc(OC)cc(OC)c3)=C2Cc2cccc(C(=O)O)c2)cc1 (stereo not shown) [Example 267, 3-[4-(3,5-Dimethoxyphenyl)-2-hydroxy-2-(4-methoxyphenyl)-5-oxo-2,5-dihydrof uran-3-ylmethyl]benzoic acid] | 710 | > 2500
7 | CCCCCCCCOc1ccc(CC2=C(c3cc(OC)cc(OC)c3)C(=O)OC2(O)c2ccc(OC)cc2)cc1OC (stereo not shown) [Example 381, 3-(3,5-Dimethoxy-phenyl)-5-hydroxy-4-(3-methoxy-4-octyloxy-benzyl)-5-(4-methoxy-phenyl)-5H-furan-2-one] | 68 | 570
8 | COc1ccc(C2(O)OC(=O)C(c3ccc4c(c3)OCO4)=C2Cc2ccc(OC(C)C)c(OC)c2)cc1C (stereo not shown) [Example 391, 3-Benzo[1,3]dioxol-5-yl-5-hydroxy-4-(4-isopropoxy-3-methoxy-benzyl)-5-(4-methoxy-3-methyl-phenyl)-5H-furan-2-one] | 1.8 | > 250
9 | COc1ccc(C2(O)OC(=O)C(c3ccc4c(c3)OCO4)=C2Cc2cccc(CC(=O)O)c2)cc1 (stereo not shown) [Example 295, {3-[4-Benzo[1,3]dioxol-5-yl-2-hydroxy-2-(4-methoxyphenyl)-5-oxo-2,5-dihydro-furan-3-ylmethyl]-phenyl}-acetic acid] | 130 | > 2500
10 | COc1ccc(C2(O)OC(=O)C(c3ccc(Cl)c(Cl)c3)=C2Cc2ccccc2)cc1 (stereo not shown) [Example 120, 4-Benzyl-3-(3,4-dichlorophenyl)-5-hydroxy-5-(4-methoxyphenyl)-5H-furan-2-one] | 850 | 
11 | COc1ccc(C2(O)OC(=O)C(c3ccc4c(c3)OCO4)=C2Cc2ccc(OC)c(OC)c2OC)cc1 (stereo not shown) [Example 305, 3-Benzo[1,3]dioxol-5-yl-5-hydroxy-5-(4-methoxy-phenyl)-4-(2,3,4-trimethoxy-benzyl)-5H-furan-2-one] | 33 | 
12 | COc1ccc(C2(O)OC(=O)C(c3ccc4c(c3)OCO4)=C2Cc2cccc3ccccc23)cc1 (stereo not shown) [Example 250, 3-Benzo[1,3]dioxol-5-yl-5-hydroxy-5-(4-methoxyphenyl)-4-naphthalen-1-ylmethyl-5H-furan-2-one] | 13 | 
13 | COc1ccc(C2(O)OC(=O)C(c3ccc(F)c(F)c3)=C2Cc2ccc(C(C)C)cc2)cc1 (stereo not shown) [Example 144, 3-(3,4-Difluorophenyl)-5-hydroxy-4-(4-isopropylbenzyl)-5-(4-methoxyphenyl)-5H-furan-2-one] | 290 | 
14 | COc1ccc(C2(O)OC(=O)C(c3ccc(Cl)c(Cl)c3)=C2Cc2ccc(C(C)C)cc2)cc1 (stereo not shown) [Example 121, 3-(3,4-Dichlorophenyl)-5-hydroxy-4-(4-isopropylbenzyl)-5-(4-methoxyphenyl)-5H-furan-2-one] | 74 | 
15 | COc1ccc(C2(O)OC(=O)C(c3ccc(F)c(F)c3)=C2Cc2ccccc2)cc1 (stereo not shown) [Example 143, 4-Benzyl-3-(3,4-difluorophenyl)-5-hydroxy-5-(4-methoxyphenyl)-5H-furan-2-one] | 1900 | 
16 | COc1ccccc1C1(O)OC(=O)C(c2ccc3c(c2)OCO3)=C1Cc1ccccc1 (stereo not shown) [Example 249, 3-Benzo[1,3]dioxol-5-yl-4-benzyl-5-hydroxy-5-(2-methoxyphenyl)-5H-furan-2-one] | 500 | 
17 | COC(=O)c1ccc(C2(O)OC(=O)C(c3ccc4c(c3)OCO4)=C2Cc2ccccc2)cc1 (stereo not shown) [Example 198, 4-(4-Benzo[1,3]dioxol-5-yl-3-benzyl-2-hydroxy-5-oxo-2,5-dihydrofuran-2-yl)b enzoic acid methyl ester] | 410 | 
18 | COc1ccc(C2(O)OC(=O)C(c3cc(Cl)cc(Cl)c3)=C2Cc2ccccc2)cc1 (stereo not shown) [Example 149, 4-Benzyl-3-(3,5-dichloro-phenyl)-5-hydroxy-5-(4-methoxy-phenyl)-5H-furan-2-one] | 600 | 
19 | Cc1ccc(C2(O)OC(=O)C(c3ccc4c(c3)OCO4)=C2Cc2ccccc2)cc1C (stereo not shown) [Example 212, 3-Benzo[1,3]dioxol-5-yl-4-benzyl-5-(3,4-dimethylphenyl)-5-hydroxy-5H-furan-2-one] | 1300 | 
20 | COc1ccc(C2(O)OC(=O)C(c3ccc4c(c3)OCO4)=C2Cc2cccc(C(=O)O)c2)cc1 (stereo not shown) [Example 292, 3-[4-Benzo[1,3]dioxol-5-yl-2-hydroxy-2-(4-methoxyphenyl)-5-oxo-2,5-dihydro-furan-3-ylmethyl]-benzoic acid] | 83 | 
21 | COc1ccc(C(=O)/C(Cc2cc(OC)c(OC)c(OC)c2)=C(\C(=O)O)c2cc(OC)c3c(c2)OCO3)cc1C [Example 369, Sodium 2-(7-Methoxy-benzo[1,3]dioxol-5-yl)-3-(4-methoxy-3-methyl-benzoyl)-4-(3,4,5-trimethoxyphenyl)-but-2-enoate] |  | 328
22 | CCc1ccc(C2(O)OC(=O)C(c3ccc4c(c3)OCO4)=C2Cc2ccccc2)cc1 (stereo not shown) [Example 266, 3-Benzo[1,3]dioxol-5-yl-4-benzyl-5-(4-ethylphenyl)-5-hydroxy-5H-furan-2-one] | 600 | 
23 | COc1ccc(C2(O)OC(=O)C(c3ccc(F)c(F)c3)=C2Cc2ccc(N(C)C)cc2)cc1 (stereo not shown) [Example 145, 3-(3,4-Difluorophenyl)-4-(4-dimethylaminobenzyl)-5-hydroxy-5-(4-methoxyphenyl)-5H-furan-2-one] | 1700 | 
24 | CC(C)c1ccc(CC2=C(c3ccc(N(C)C)cc3)C(=O)OC2(O)c2ccc(Cl)cc2)cc1 (racemic) [Example 57, 2(5H)-Furanone, 5-(4-chlorophenyl)-3-[(4-(dimethylamino)phenyl]-5-hydroxy-4-[[4-(1-methylethyl)phenyl]methyl]-, (±)-] | 11000 | 
25 | COc1ccc(C2(O)OC(=O)C(c3ccc4c(c3)OCO4)=C2Cc2ccc(C(F)(F)F)cc2)cc1 (stereo not shown) [Example 88, 3-Benzo[1,3]dioxol-5-yl-5-hydroxy-5-(4-methoxyphenyl)-4-(4-trifluoromethylbenzyl)-5H-furan-2-one] | 250 | 
26 | COc1ccc(C2(O)OC(=O)C(c3ccc4c(c3)OCO4)=C2Cc2ccccc2)cc1C (racemic) [Example 290, 2(5H)-Furanone, 3-(1,3-benzodioxol-5-yl)-5hydroxy-5-(4-methoxy-3-methylphenyl)-4-(phenylmethyl)-, (±)-] | 12 | 
27 | COc1ccc(C2(O)OC(=O)C(c3ccc4c(c3)OCO4)=C2Cc2ccc(OCc3ccccc3)cc2)cc1 (stereo not shown) [Example 86, 3-Benzo[1,3]dioxol-5-yl-4-(4-benzyloxybenzyl)-5-hydroxy-5-(4-methoxyphenyl) -5H-furan-2-one] | 310 | 
28 | COc1ccc(CC2=C(c3ccc(N(C)C)cc3)C(=O)OC2(O)c2ccc(Cl)cc2)cc1OC (racemic) [Example 56, 2(5H)-Furanone, 5-(4-chlorophenyl)-4-[(3,4-dimethoxyphenyl)methyl]-3-[4-(dimethylamino)phenyl]-5-hydroxy-, (±)-] | 14000 | 
29 | COc1ccc(C2(O)OC(=O)C(c3cc(OC)cc(OC)c3)=C2CC2CCCCC2)cc1 (stereo not shown) [Example 275, 2(5H)-Furanone, 4-(cyclohexylmethyl)-3-(3,5-dimethoxyphenyl)-5-hydroxy-5-(4-methoxyphenyl)] | 12 | 
